Assay results taken from patent publication US12370352B2, “Nasal and ophthalmic delivery of aqueous corticosteroid solutions” (CyDex Pharmaceuticals, Inc., priority 2007, dated 2025).
Where a name gives a salt, the structure may show the parent alone.

Key:
[1] = Equilibrium binding constants (K) of corticosteroids with SBE6.1-γ-CD (Example 46); conditions: (SBE)6.1 γ (0.04 M); in M-1 (unit assumed)
Source text: (§1) The binding of a corticosteroid to the SAE-CD can be characterized by its equilibrium binding constant. The higher the binding constant, the more tightly the corticosteroid is bound to the SAE-CD.

[2] = Equilibrium binding constants (K) of corticosteroids with CAPTISOL (Example 46); conditions: CAPTISOL (0.04 M); in M-1 (unit assumed)
Source text: as §1

[3] = assay type: binding
Source text: (§2) The equilibrium binding constant of the corticosteroid can change when a second active agent is present in a composition of the invention. Since azelastine hydrochloride (AZ-HCl) has an approximately 10-fold higher binding constant for SBE-β-CD than does budesonide (BUD), the amount of SBE-β-CD present in an aqueous composition of the three needs to be sufficient to solubilize both drugs. Example 19 details a procedure for determination of the phase solubility of budesonide in the presence of varying amounts of azelastine. The results are depicted in FIGS. 11A (for SBE-β-CD) and 11B (for SBE-β-CD and SBE-γ-CD). […] FIG. 11B is a chart of the phase solubility of BUD as a function of SBE-β-CD or SBE-γ-CD concentration in solution using various different concentrations of AZ-HCl (1.00-2.75 mg.mL). […] Thus, increasing the amount of AZ-HCl in the solution decreases the overall solubility of BUD. […] Therefore, it is advantageous to prepare solution compositions of these combinations using SBE-γ-CD due to the efficiency of interaction so as to require less of one SAExCD versus another different SAEyCD to solubilize similar amounts of actives in the presence of each other.

[4] = Stability of budesonide R- and S-isomers with and without SBE7-β-CD (Example 13); assay type: physicochemical; conditions: pH 4 and 6, all temperatures (60° C., 80° C.)
Method: SAE-CD is also capable of stabilizing the isomers of budesonide to different extents. […] At a given temperature the ratio of rate constants with/without SBE7-β-CD was less at pH 6 than at pH 4. Although SBE7-β-CD stabilized both isomers, the S-isomer appears to be stabilized to an even greater extent than the R. At all temperatures and pHs tested, the ratio of rate constants with/without SBE7-β-CD was lower for the S isomer. The degree of stabilization affected by SBE7-β-CD at 60° C. is greater than at 80° C. An even greater degree of stabilization would be expected at 40° C. and/or room temperature (20-30° C.). […] The loss of budesonide was first order and […]. […] To achieve a concentration of budesonide in the buffers without SBE7-β-CD sufficient for accurate measurement, the budesonide was dissolved first in 100% ethyl alcohol. […] All solution preps and procedures involving budesonide were done in a darkened room under red light. […] The final budesonide concentration was about 50 μg/mL. […] Each solution was aliquoted into individual amber vials. They were then placed in ovens at 60° C. and 80° C. Sample vials were removed from the ovens and analyzed by HPLC at 0, 96, 164, and 288 hours. The HPLC assay conditions are summarized below. […]

[5] = Phase solubility of budesonide in the presence of SAE-CD and azelastine hydrochloride (Example 19); assay type: physicochemical; conditions: SBE-β-CD or SBE-γ-CD solutions, pH 4.5 citrate buffer
Source text: The equilibrium binding constant of the corticosteroid can change when a second active agent is present in a composition of the invention. Since azelastine hydrochloride (AZ-HCl) has an approximately 10-fold higher binding constant for SBE-β-CD than does budesonide (BUD), the amount of SBE-β-CD present in an aqueous composition of the three needs to be sufficient to solubilize both drugs. Example 19 details a procedure for determination of the phase solubility of budesonide in the presence of varying amounts of azelastine. The results are depicted in FIGS. 11A (for SBE-β-CD) and 11B (for SBE-β-CD and SBE-γ-CD). […] FIG. 11B is a chart of the phase solubility of BUD as a function of SBE-β-CD or SBE-γ-CD concentration in solution using various different concentrations of AZ-HCl (1.00-2.75 mg.mL). […] Thus, increasing the amount of AZ-HCl in the solution decreases the overall solubility of BUD. […]
A stock solution of citrate buffer (3 mM, pH 4.5) was prepared. […] Any budesonide remaining suspended in the solutions was removed by filtration and the concentration of budesonide in each solution measured by HPLC as described herein. […]

[6] = assay type: binding; remark: listed apart in the source
Method: A composition of the invention can comprise SAE-CD, corticosteroid, aqueous liquid carrier, and an antihistamine. In some embodiments, the composition contains SAE-CD, budesonide, water (or aqueous buffer) and azelastine. Example 14 details the preparation of such a composition. Other solutions of azelastine in buffer with varying amounts of SAE-CD, in the absence of budesonide, were prepared and scanned by UV Spectrometer. The change in absorption as a function of SAE-CD concentration was plotted and used to determine the equilibrium binding constant of azelastine with SAE-CD, according to the Benesi-Hildebrand equation. […] The binding constant for budesonide under similar conditions was determined to be about 1000; therefore, azelastine will compete with budesonide, or another corticosteroid, for binding to SAE-CD. Accordingly, the amount of SAE-CD present can be increased to permit complete dissolution of both drugs.
as §2

[7] = Fluticasone propionate concentration in SBE-Gamma ophthalmic solution, excess drug (Example 36 Method A); assay type: physicochemical; conditions: 10% w/v SBE-Gamma (D.S.=6.1), 0.01% TWEEN
Method: A citrate buffer solution at a pH of 4.5 was prepared by mixing various portions of 0.003M citric acid with 0.003M of trisodium citrate. A phosphate buffer solution at a pH of 6.0 was prepared by mixing various portions of 0.003M monobasic sodium phosphate with 0.003M of dibasic sodium phosphate. […] An excess of fluticasone propionate was added to the vials and equilibrated on a rocker for three days. The samples were then filtered using a PVDF 0.22 μm syringe filter. Aliquots of the solutions were placed into clear glass 2 mL serum vials with aluminum crimp caps and Daikyo Flurotec septums. […] The concentration of the pH 6.0 solution was 238 μg/mL.

[8] = Phase solubility of corticosteroids with cyclodextrins (Example 23)
[9] = Aqueous budesonide/olopatadine/CAPTISOL solution (Example 47); assay type: physicochemical
Method: An aqueous budesonide/olopatadine solution was prepared. […] Three mM citrate buffer was prepared at pH 4.5. […] Those citrate solutions were mixed to adjust the pH to 4.5. […] The solutions were transferred into 250 mL amber beakers with a magnetic stir disk. The solutions were mixed with a magnetic stir disk at 900 rpm at a temperature of 35° C. Approximately 34 milligrams of budesonide was suspended in each CAPTISOL solution. The samples were mixed with a magnetic stir disk at 900 rpm and 35° C. After 24 hours, the samples were filtered through 0.22 μm PVDF filter. The budesonide in the aliquots was assayed by an HPLC assay method and the concentrations were 340 μg/mL. […] Approximately 27 milligrams of olopatadine HCl was weighed into each of three 2 drams amber vials. The olopatadine HCl was suspended to 4 mL of budesonide/CAPTISOL solutions prepared in Part A. The samples were mixed on a roller mixer at RT. After 24 hours, the samples were filtered through 0.22 μm PVDF filter. The olopatadine and budesonide in the aliquots was assayed by HPLC assay methods, respectively. All olopatadine HCl concentrations were >6.6 mg/mL and all budesonide concentrations were >320 μg/mL. […] Approximately 27 milligrams of olopatadine HCl were weighed into each of three 2 drams amber vials. The olopatadine HCl was suspended to 4 mL of budesonide/CAPTISOL solutions prepared in Part A. The samples were mixed on a roller mixer at RT. After 1 hour, the pH of each sample was adjusted to 4.5 with 1N NaOH. Again, the samples were mixed on a roller mixer at RT. […] All samples were filtered through 0.22 μm PVDF filter. The olopatadine and budesonide in the aliquots were assayed by HPLC assay methods, respectively.

Binding Constant- K [1]	Binding Constant- K [2]	Compound	further results
2862	684	CCC(=O)OCC(=O)[C@@]1(OC(=O)CC)[C@@H](C)C[C@H]2[C@@H]3CCC4=CC(=O)C=C[C@]4(C)[C@@]3(Cl)[C@@H](O)C[C@@]21C [Beclomethasone dipropionate, beclomethasone dipropionate]	–
–	–	CCCC1O[C@@H]2C[C@H]3[C@@H]4CCC5=CC(=O)C=C[C@]5(C)[C@H]4[C@@H](O)C[C@]3(C)[C@]2(C(=O)CO)O1 (stereo partly drawn) [Budesonide, (R,S)-11β, 16α, 17, 21-tetrahydroxypregna-1,4-diene-3, 20-dione cyclic 16, 17-acetal with butyraldehyde]	Equilibrium complex stability constant with SBE-γ-CD [3]: 2000 M⁻¹; With/without CAPTISOL ratio of degradation rate constants [4]: less than 1; Overall solubility of BUD with increasing amount of AZ-HCl [5]: decreases; Equilibrium complex stability constant with SBE-β-CD [6]: 1000 M⁻¹
1104	590	CC1(C)O[C@@H]2C[C@H]3[C@@H]4C[C@H](F)C5=CC(=O)C=C[C@]5(C)[C@H]4[C@@H](O)C[C@]3(C)[C@]2(C(=O)CO)O1 [Flunisolide]	–
3338	322	CCC(=O)O[C@]1(C(=O)SCF)[C@H](C)C[C@H]2[C@@H]3C[C@H](F)C4=CC(=O)C=C[C@]4(C)[C@@]3(F)[C@@H](O)C[C@@]21C [Fluticasone propionate, fluticasone propionate]	Concentration in solution (excess drug, filtered) ([7]; citrate buffer pH 4.5): 232 µg/mL; Concentration in solution (excess drug, filtered) ([7]; phosphate buffer pH 6.0): 238 µg/mL
1430	1932	C[C@]12CCC(=O)C=C1CC[C@@H]1[C@@H]2[C@@H](O)C[C@@]2(C)[C@H]1CC[C@]2(O)C(=O)CO [Hydrocortisone]	–
551	201	C[C@@H]1C[C@H]2[C@@H]3CCC4=CC(=O)C=C[C@]4(C)[C@@]3(Cl)[C@@H](O)C[C@]2(C)[C@@]1(OC(=O)c1ccco1)C(=O)CCl [Mometasone Fuorate]	–
1653	1496	C[C@]12C=CC(=O)C=C1CC[C@@H]1[C@@H]2[C@@H](O)C[C@@]2(C)[C@H]1CC[C@]2(O)C(=O)CO [Prednisolone]	–
–	–	CC1(C)O[C@@H]2C[C@H]3[C@@H]4CCC5=CC(=O)C=C[C@]5(C)[C@@]4(F)[C@@H](O)C[C@]3(C)[C@]2(C(=O)CO)O1 [Triamcinolone acetonide, triamcinolone acetonide]	Approximate Molar Ratio at Saturated Solubility of Corticosteroid (SAE-CD:corticosteroid) ([8]; SAE-β-CD): 8.8; Approximate Molar Ratio at Saturated Solubility of Corticosteroid (SAE-CD:corticosteroid) ([8]; SAE-γ-CD): 3.8
–	–	CN1CCCC(n2nc(Cc3ccc(Cl)cc3)c3ccccc3c2=O)CC1 (stereo not drawn) [azelastine HCL, azelastine hydrochloride]	Binding constant for SBE-β-CD relative to budesonide ([6]; AZ-HCl versus BUD): approximately 10 fold
–	–	CN(C)CC/C=C1/c2ccccc2COc2ccc(CC(=O)O)cc21 [olopatadine HCl]	Olopatadine HCl concentration ([9]; Part B, all CAPTISOL concentrations (5, 7.5, 10% w/v), pH ~3.8): > 6.6 mg/mL; Olopatadine HCl concentration ([9]; Part C, pH adjusted to 4.5, CAPTISOL 5% w/v (precipitation)): 6.5 mg/mL; Olopatadine HCl concentration ([9]; Part C, pH adjusted to 4.5, CAPTISOL 7.5 and 10% w/v): > 6.6 mg/mL
